Source: patent US8658698B2, “Insecticidal compounds” (Syngenta Crop Protection, LLC, priority 2008, dated 2014)

Tests used:
Format in all cases: in vivo
[1] = system: Spodoptera littoralis (Egyptian Cotton Leafworm); experiment: Spodoptera littoralis cotton leaf disc spray test; details: same protocol, 200 ppm, 3 DAT
Protocol: (§1) This Example illustrates the pesticidal/insecticidal properties of compounds of formula (I). The tests were performed as follows:
Spodoptera littoralis (Egyptian Cotton Leafworm)
(§2) Cotton leaf discs were placed on agar in a 24-well microtiter plate and sprayed with test solutions at an application rate of 200 ppm. After drying, the leaf discs were infested with 5 L1 larvae. The samples were checked for mortality, feeding behavior, and growth regulation 3 days after treatment (DAT). The following compounds gave at least 80% control of Spodoptera littoralis: A2, A6, A8, A9, A10, A11, A13, A15, A19, A20, A22, A25, A27, A29, A31, A33, A35, A41, A50, A55, A60, A65, A73, A88, A92, and A94. Heliothis virescens (Tobacco Budworm): Eggs (0-24 h old) were placed in 24-well microtiter plate on artificial diet and treated with test solutions at an application rate of 200 ppm (concentration in well 18 ppm) by pipetting. After an incubation period of 4 days, samples were checked for egg mortality, larval mortality and growth regulation. The following compounds gave at least 80% control of Heliothis virescens: A2, A3, A4, A5, A6, A7, A9, A10, A11, A13, A15, A19, A20, A22, A25, A26, A27, A28, A29, A31, A32, A33, A35, A38, A40, A41, A43, A46, A55, A59, A60, A65, A69, A70, A71, A73, A74, A75, A77, A79, A80, A82, A86, A88, A89, A90, A92, A94, A96, A98, and A100. Plutella xylostella (Diamond Back Moth): A 24-well microtiter plate (MTP) with artificial diet was treated with test solutions at an application rate of 200 ppm (concentration in well 18 ppm) by pipetting. After drying, the MTP's were infested with L2 larvae (7-12 per well). After an incubation period of 6 days, samples were checked for larval mortality and growth regulation. The following compounds gave at least 80% control of Plutella xylostella: A3, A4, A5, A6, A7, A8, A10, A15, A16, A18, A19, A20, A22, A25, A26, A27, A28, A29, A31, A32, A33, A35, A38, A40, A55, A69, A71, A73, A74, A75, A76, A77, A78, A80, A82, A86, A87, A88, A89, A92, A94, A96, A97, A98, and A99. Diabrotica balteata (Corn Root Worm): A 24-well microtiter plate (MTP) with artificial diet was treated with test solutions at an application rate of 200 ppm (concentration in well 18 ppm) by pipetting. After drying, the MTP's were infested with larvae (L2) (6-10 per well). After an incubation period of 5 days, samples were checked for larval mortality, and growth regulation. The following compounds gave at least 80% control of Diabrotica balteata: A5, A6, A7, A14, A15, A18, A24, A35, A53, A55, A70, A71, A75, A79, A84, A85, A88, A92, A93, A95, A96, A97, A98, A99, A100, A101, A102, A103, and A104. Myzus persicae (Green Peach Aphid): Each well of a 24-well microtiter plate is filled with 0.6 ml 30% sucrose solution, containing 12.5 ppm of the test compounds. The wells are covered with streched parafilm and infested with a mixed population of Myzus persicae. After an incubation period of 6 days, samples are checked for mortality (feeding activity). The following compounds gave at least 80% control of Myzus persicae: A4, A6, A10, A11, A15, A19, A20, A24, A27, A29, A33, A34, A36, A37, A39, A40, A41, A42, A43, A44, A45, A46, A47, A48, A49, A55, A60, and A82. Tetranychus urticae (Two-Spotted Spider Mite): Bean leaf discs on agar in 24-well microtiter plates were sprayed with test solutions at an application rate of 200 ppm. After drying, the leaf discs are infested with mite populations of mixed ages. 8 days later, discs are checked for egg mortality, larval mortality, and adult mortality. The following compounds gave at least 80% control of Tetranychus urticae: A6, A11, A15, A19, A20, A22, A26, A35, A58, and A64.

[2] = system: Heliothis virescens (Tobacco Budworm); experiment: Heliothis virescens egg test on artificial diet; details: same protocol, 200 ppm (18 ppm in well), 4 days
Protocol: as §1, §2

[3] = system: Plutella xylostella (Diamond Back Moth); experiment: Plutella xylostella larvae test on artificial diet; details: same protocol, 200 ppm (18 ppm in well), 6 days
Protocol: as §1, §2

[4] = system: Diabrotica balteata (Corn Root Worm); experiment: Diabrotica balteata larvae test on artificial diet; details: same protocol, 200 ppm (18 ppm in well), 5 days
Protocol: as §1, §2

[5] = system: Myzus persicae (Green Peach Aphid); experiment: Myzus persicae sucrose solution feeding test; details: same protocol, 12.5 ppm, 6 days
Protocol: as §1, §2

[6] = system: Tetranychus urticae (Two-Spotted Spider Mite); experiment: Tetranychus urticae bean leaf disc spray test; details: same protocol, 200 ppm, 8 days
Protocol: as §1, §2

Measured: effect on mortality, feeding behavior, or growth regulation

CCCCNC(=O)c1ccc(C(=O)Nc2c(C)cc(C(F)(C(F)(F)F)C(F)(F)F)cc2C)cc1C [A1, N-1-butyl-N-4-[2,6-dimethyl-4-(1,2,2,2-tetrafluoro-1-trifluoro-methyl-ethyl)-phenyl]-2-methyl-terephthalamide]
no or little effect: all assays above

CCOC(=O)C1CC=CCC1NC(=O)c1ccc(C(=O)Nc2c(C)cc(C(F)(C(F)(F)F)C(F)(F)C(F)(F)F)cc2CC)cc1C (stereo not drawn) [A12]
no or little effect: all assays above

CCc1cc(C(F)(C(F)(F)F)C(F)(F)C(F)(F)F)cc(C)c1NC(=O)c1ccc(C(=O)NC(C)COC)c(C)c1 (stereo not drawn) [A17]
no or little effect: all assays above

CCc1cc(C(F)(C(F)(F)F)C(F)(F)C(F)(F)F)cc(C)c1NC(=O)c1ccc(C(=O)NC2CCCCC2C)c(C)c1 (stereo not drawn) [A21]
no or little effect: all assays above

CCc1cc(C(F)(C(F)(F)F)C(F)(F)C(F)(F)F)cc(C)c1NC(=O)c1ccc(C(=O)NCCCN2CCCC2)c(C)c1 (stereo not drawn) [A23]
no or little effect: all assays above

CCc1cc(C(F)(C(F)(F)F)C(F)(F)C(F)(F)F)cc(C)c1NC(=O)c1ccc(C(=O)NCc2ccccc2OC(F)(F)F)c(C)c1 (stereo not drawn) [A30]
no or little effect: all assays above

CCc1cc(C(F)(C(F)(F)F)C(F)(F)C(F)(F)F)cc(C)c1NC(=O)c1ccc(C(=O)Nc2ccccc2-c2cc3ccccc3[nH]2)c(C)c1 (stereo not drawn) [A51]
no or little effect: all assays above

CCc1cc(C(F)(C(F)(F)F)C(F)(F)C(F)(F)F)cc(C)c1NC(=O)c1ccc(C(=O)Nc2ccccc2N2CCOCC2)c(C)c1 (stereo not drawn) [A52]
no or little effect: all assays above

CCc1cc(C(F)(C(F)(F)F)C(F)(F)C(F)(F)F)cc(C)c1NC(=O)c1ccc(C(=O)Nc2cc(C)nn2C)c(C)c1 (stereo not drawn) [A54]
no or little effect: all assays above

CCc1cc(C(F)(C(F)(F)F)C(F)(F)C(F)(F)F)cc(C)c1NC(=O)c1ccc(C(=O)Nc2n[nH]c(SC)n2)c(C)c1 (stereo not drawn) [A56]
no or little effect: all assays above

CCc1cc(C(F)(C(F)(F)F)C(F)(F)C(F)(F)F)cc(C)c1NC(=O)c1ccc(C(=O)Nc2ncccc2C)c(C)c1 (stereo not drawn) [A57]
no or little effect: all assays above

CCc1cc(C(F)(C(F)(F)F)C(F)(F)C(F)(F)F)cc(C)c1NC(=O)c1ccc(C(=O)Nc2cc(-c3ccccc3)[nH]n2)c(C)c1 (stereo not drawn) [A61]
no or little effect: all assays above
